# Experimental data as given in patent publication US20030199590A1, “Prostaglandin analogues for promotion of hair growth” (priority 2002, published 2003).
# Like-named read-outs stand apart in the source and are kept apart here.
# Key:
# FP receptors = biological target: T1, FP receptors (Bos taurus, UniProt P37289); assay: FP receptor binding assay ([3H]PGF2α, bovine corpus luteum membranes); conditions: for IC50: Table 1, [3H]PGF2α, bovine corpus luteum membranes, free acid form; for Ki: Table 2, FP receptor binding
# T1 construct: Washed total particulate bovine corpus luteum membranes; from tissue; host or cells: bovine corpus luteum membranes
# T1 sequence (P37289 whole entry): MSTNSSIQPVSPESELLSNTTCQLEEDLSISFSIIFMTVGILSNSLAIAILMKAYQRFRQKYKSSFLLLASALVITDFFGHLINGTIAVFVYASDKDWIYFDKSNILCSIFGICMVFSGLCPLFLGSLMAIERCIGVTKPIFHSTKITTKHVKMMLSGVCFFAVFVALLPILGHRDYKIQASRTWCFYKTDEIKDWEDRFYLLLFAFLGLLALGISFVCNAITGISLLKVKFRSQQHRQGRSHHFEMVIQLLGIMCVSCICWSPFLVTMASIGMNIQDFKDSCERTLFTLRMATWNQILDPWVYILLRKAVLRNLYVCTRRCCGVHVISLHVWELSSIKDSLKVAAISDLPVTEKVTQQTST
# Procedure: Non-specific binding was defined with 1-10 μM unlabeled PGF2α or fluprostenol. The assays were terminated by vacuum filtration (using Whatman GF/B glass fiber filter previously soaked in 0.3% polyethyleneimine) and the data analyzed by a non-linear, iterative, curve-fitting computer program.
# [1] = biological target: T2, FP receptors (Swiss 3T3 cells expressing FP receptors) (Mus musculus, UniProt P43117); assay: FP receptor-mediated phosphoinositide turnover assay; format: cell-based; conditions: for Emax: Swiss-3T3, 1 h, efficacy relative to standard full agonist (100%), read-out: FP functional (%) agonistic activity; for EC50: [3H]-IPs in Swiss 3T3 cells; for % response: efficacy relative to standard
# T2 construct: endogenous in cells; host or cells: Swiss 3T3 cells
# T2 sequence (P43117 whole entry): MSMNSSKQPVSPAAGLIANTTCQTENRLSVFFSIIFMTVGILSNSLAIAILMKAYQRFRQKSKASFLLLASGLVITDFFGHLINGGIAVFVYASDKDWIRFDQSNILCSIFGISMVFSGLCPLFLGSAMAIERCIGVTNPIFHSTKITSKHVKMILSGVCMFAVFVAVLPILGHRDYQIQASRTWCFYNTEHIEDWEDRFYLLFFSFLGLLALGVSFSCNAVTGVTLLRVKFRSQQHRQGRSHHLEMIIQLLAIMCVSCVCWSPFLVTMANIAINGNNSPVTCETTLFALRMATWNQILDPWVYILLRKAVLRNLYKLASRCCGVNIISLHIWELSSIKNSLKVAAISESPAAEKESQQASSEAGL
# Procedure: FP receptor-mediated phosphoinositide turnover assay: [^3H]Inositol phosphates ([^3H]-IPs) produced by agonist-mediated activation of phospholipase C in Swiss 3T3 cells expressing FP receptors were quantified as follows. Confluent 3T3 cells were exposed to 1.0-1.5 μCi [^3H]-myo-inositol (18.3 Ci/mmol) in 0.5 ml DMEM for 24-30 hours at 37° C. Then cells were rinsed once with DMEM/F-12 containing 10 mM LiCl, and the agonist stimulation experiment was performed in 0.5 ml of the same medium to facilitate accumulation of [^3H]-IPs. Cells were exposed to the agonist or solvent for 60 min at 37° C. (triplicate determinations), followed by aspiration of the medium and immediate addition of 1 ml of ice-cold 0.1 M formic acid. The plates were kept cold and then frozen. Samples frozen up to one week were thawed prior to chromatographic separation of radiolabeled components. The cell lysates (0.9 ml) were loaded on columns packed with approximately 1 ml AG 1-X8 anion exchange resin. The elution procedure consisted of a wash with 10 ml of H2O, then 8 ml of 50 mM ammonium formate, and finally 4 ml of 1.2 M ammonium formate with 0.1 M formic acid, which was collected in a scintillation vial. To this eluate was added 15 ml of scintillation fluid and the total [^3H]-IPs determined by scintillation counting on a beta-counter. Data were analyzed by the sigmoidal fit function of the Origin Scientific Graphics software (Microcal Software, Northampton, Mass.) to determine agonist potency (EC50 value) and efficacy, relative to the standard cloprostenol.
# [2] = Table 1, read-out: FP functional EC50
SMILES,IC50 (FP receptors),Emax ([1]; Table 1),"EC50 [1, 2]",Ki (FP receptors),"EC50 ([1]; Table 2, read-out: EC50)",% response ([1]; Table 2)
O=C(O)CCC/C=C\C[C@H]1CC[C@@H](O)[C@@H]1/C=C/[C@@H](O)CCc1ccccc1 [Compound 1],96 nM,87.6%,19.6 nM,–,–,–
O=C(O)CCC/C=C\C[C@H]1CC[C@@H](O)[C@@H]1CC[C@@H](O)CCc1ccccc1 [Compound 2],310 nM,60%,76.6 nM,–,–,–
O=C(O)CCC/C=C\C[C@H]1CC[C@@H](O)[C@@H]1/C=C/[C@@H](O)COc1cccc(Cl)c1 [Compound 6],10 nM,100%,2.6 nM,–,–,–
O=C(O)CCC/C=C\C[C@H]1CC[C@@H](O)[C@@H]1CC[C@@H](O)C1Cc2ccccc2C1 [Compound 11],1900 nM,60%,108 nM,–,–,–
O=C(O)CCC/C=C\C[C@H]1[C@@H](O)CO[C@@H]1/C=C/[C@H](O)COc1cccc(Cl)c1 [Compound 14],7300 nM,67%,194 nM,–,–,–
O=C(O)CCC/C=C\C[C@H]1[C@@H](O)CO[C@@H]1/C=C/[C@@H](O)COc1cccc(Cl)c1 [Compound 15],890 nM,88%,58 nM,–,–,–
O=C(O)CCC/C=C\C[C@@H]1[C@@H](CC[C@@H](F)COc2cccc(Cl)c2)[C@H](O)C[C@@H]1O [Compound 17],26 nM,64%,9 nM,–,–,–
O=C(O)CCCCCC[C@H]1C(=O)CO[C@@H]1/C=C/[C@@H](O)COc1ccccc1 [Compound 20],9700 nM,67%,–,–,–,–
O=C(O)CCC/C=C\C[C@@H]1[C@@H](CC[C@@H](F)COc2cccc(C(F)(F)F)c2)[C@H](O)C[C@@H]1O [Compound 24],230 nM,85%,12.5 nM,–,–,–
O=C(O)CCC/C=C\C[C@H]1[C@@H](O)CO[C@@H]1/C=C/[C@H](O)COc1cccc(C(F)(F)F)c1 [Compound 27],15000 nM,43%,889 nM,–,–,–
O=C(O)CCC/C=C\C[C@H]1[C@@H](O)CO[C@@H]1/C=C/[C@@H](O)CCc1ccccc1 [Compound 28],1900 nM,100%,80 nM,–,–,–
O=C(O)CCC/C=C\C[C@H]1[C@@H](O)CO[C@@H]1/C=C/[C@H](O)COc1ccccc1 [Compound 32],573 nM,100%,48.6 nM,–,–,–
O=C(O)CCC/C=C\C[C@H]1[C@@H](O)CO[C@@H]1/C=C/[C@@H](O)COc1ccccc1 [Compound 33],640 nM,67%,293 nM,–,–,–
O=C(O)CCC/C=C\C[C@H]1[C@@H](O)CO[C@@H]1/C=C/[C@H](O)COc1ccc(F)cc1 [Compound 36],4600 nM,75%,1240 nM,–,–,–
O=C(O)CCC/C=C\C[C@H]1[C@@H](O)CO[C@@H]1/C=C/[C@@H](O)COc1ccc(F)cc1 [Compound 37],1400 nM,78%,437 nM,–,–,–
O=C(O)CC/C=C\CC[C@H]1[C@@H](O)CO[C@@H]1/C=C/[C@@H](O)COc1cccc(Cl)c1 [Compound 40],430 nM,82%,23 nM,–,–,–
O=C(O)CCC/C=C\C[C@@H]1[C@@H](CC[C@@H](F)COc2ccccc2)[C@H](O)C[C@@H]1O [Compound 45],52 nM,79%,9.5 nM,–,–,–
O=C(O)CC/C=C\CC[C@H]1[C@@H](O)CO[C@@H]1/C=C/[C@H](O)COc1cccc(C(F)(F)F)c1 [Compound 51],9900 nM,61%,781 nM,–,–,–
O=C(O)CC/C=C\CC[C@H]1[C@@H](O)CO[C@@H]1/C=C/[C@@H](O)COc1ccccc1 [Compound 52],330 nM,83%,57 nM,–,–,–
O=C(O)CC/C=C\CC[C@H]1[C@@H](O)CO[C@@H]1/C=C/[C@@H](O)COc1cccc(C(F)(F)F)c1 [Compound 53],350 nM,92%,96 nM,–,–,–
O=C(O)CCC/C=C\C[C@@H]1[C@@H](/C=C/[C@H](F)COc2cccc(Cl)c2)[C@H](O)C[C@@H]1O [Compound 62],182 nM,76%,81 nM,–,–,–
O=C(O)CCC/C=C\C[C@@H]1[C@@H](OC[C@@H](O)COc2cccc(Cl)c2)[C@H](O)C[C@@H]1O [Compound 65],540 nM,91%,57.8 nM,–,–,–
O=C(O)CCC/C=C\C[C@@H]1[C@@H](OC[C@@H](O)COc2ccccc2)[C@H](O)C[C@@H]1O [Compound 69],277 nM,57%,56 nM,–,–,–
O=C(O)CCC/C=C\C[C@@H]1[C@@H](OC[C@H](O)COc2ccccc2)[C@H](O)C[C@@H]1O [Compound 70],1070 nM,57%,166 nM,–,–,–
O=C(O)CCC/C=C\C[C@@H]1[C@@H](/C=C/[C@@H](F)COc2cccc(C(F)(F)F)c2)[C@H](O)C[C@@H]1O [Compound 75],160 nM,83%,11.1 nM,–,–,–
O=C(O)CCC/C=C\C[C@@H]1[C@@H](/C=C/[C@H](F)COc2cccc(C(F)(F)F)c2)[C@H](O)C[C@@H]1O [Compound 76],4200 nM,44.5%,131 nM,–,–,–
O=C(O)CCC/C=C\C[C@@H]1[C@@H](CC[C@@H](O)COc2cccc(Cl)c2)[C@H](O)C[C@@H]1O [Compound 83],–,–,–,50 nM,4 nM,100%
O=C(O)CCCCCC[C@@H]1[C@@H](CC[C@@H](O)COc2cccc(Cl)c2)[C@H](O)C[C@@H]1O [Compound 85],–,–,–,220 nM,23 nM,100%

# Results, then the compound that gave them:
IC50 (FP receptors),Emax ([1]; Table 1),"EC50 [1, 2]",Ki (FP receptors),"EC50 ([1]; Table 2, read-out: EC50)",% response ([1]; Table 2),SMILES
47 nM,84%,6.6 nM,–,–,–,O=C(O)CCC/C=C\C[C@H]1CC[C@@H](O)[C@@H]1CC[C@@H](O)CCc1cccc(Cl)c1 [Compound 8]
78000 nM,–,> 10000 nM,–,–,–,O=C(O)CCCCCC[C@H]1C(=O)CO[C@@H]1/C=C/[C@H](O)COc1ccccc1 [Compound 21]
1800 nM,74%,187 nM,–,–,–,O=C(O)CCC/C=C\C[C@H]1[C@@H](O)CO[C@@H]1/C=C/[C@@H](O)COc1cccc(C(F)(F)F)c1 [Compound 26]
36000 nM,–,> 10000 nM,–,–,–,O=C(O)CCC/C=C\C[C@@H]1C(C#C[C@H](O)COc2cccc(Cl)c2)OC[C@@H]1O (stereo partly drawn) [Compound 38]
5100 nM,100%,509 nM,–,–,–,O=C(O)CCC/C=C\C[C@@H]1C(C#C[C@@H](O)COc2cccc(Cl)c2)OC[C@@H]1O (stereo partly drawn) [Compound 39]
5100 nM,59%,252 nM,–,–,–,O=C(O)CC/C=C\CC[C@H]1[C@@H](O)CO[C@@H]1/C=C/[C@H](O)COc1ccccc1 [Compound 50]
818 nM,71%,249 nM,–,–,–,O=C(O)CC/C=C\CC[C@H]1[C@@H](O)CO[C@@H]1/C=C/[C@H](O)COc1cccc(Cl)c1 [Compound 54]
267 nM,104%,3.8 nM,–,–,–,O=C(O)CCC/C=C\C[C@@H]1[C@@H](/C=C/[C@@H](F)COc2ccccc2)[C@H](O)C[C@@H]1O [Compound 57]
1120 nM,98%,96 nM,–,–,–,O=C(O)CCC/C=C\C[C@@H]1[C@@H](/C=C/[C@H](F)COc2ccccc2)[C@H](O)C[C@@H]1O [Compound 60]
238 nM,84%,2.2 nM,–,–,–,O=C(O)CCC/C=C\C[C@@H]1[C@@H](/C=C/[C@@H](F)COc2cccc(Cl)c2)[C@H](O)C[C@@H]1O [Compound 63]
4340 nM,56%,503 nM,–,–,–,O=C(O)CCC/C=C\C[C@@H]1[C@@H](OC[C@H](O)COc2cccc(Cl)c2)[C@H](O)C[C@@H]1O [Compound 66]
690 nM,67%,8.8 nM,–,–,–,O=C(O)CC/C=C\CC[C@@H]1[C@@H](CC[C@@H](F)COc2ccccc2)[C@H](O)C[C@@H]1O [Compound 74]
–,–,–,91 nM,1.4 nM,100%,O=C(O)CCC/C=C\C[C@@H]1[C@@H](/C=C/[C@@H](O)COc2cccc(Cl)c2)[C@H](O)C[C@@H]1O [Compound 81]
–,–,–,35 nM,3.8 nM,96%,O=C(O)CCC/C=C\C[C@@H]1[C@@H](/C=C/[C@@H](O)COc2cccc(C(F)(F)F)c2)[C@H](O)C[C@@H]1O [Compound 82]
–,–,–,130 nM,210 nM,76%,O=C(O)CCC/C=C\C[C@@H]1[C@@H](CC[C@H](O)COc2cccc(Cl)c2)[C@H](O)C[C@@H]1O [Compound 84]
